Source: patent publication US10638756B2, “Molecules having pesticidal utility, and intermediates, compositions, and processes, related thereto” (Dow AgroSciences LLC, priority 2017, dated 2020)

Legend:
[1] = system: Cabbage Looper (Trichoplusia ni); test: Bioassay on Cabbage Looper (CL), 128-well diet tray assay; assay type: in vivo; settings: 168 h, 50 μg/cm^2 on artificial diet, second instar larvae, five to seven days, read-out: CL % Control (or Mortality) rating
In short: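 Test molecule was dissolved in 90:10 acetone-water, applied to artificial diet at 50 μg/cm^2 and allowed to dry. Second-instar larvae were then added, one to five per well, and trays held at 25° C for five to seven days before mortality was scored and averaged.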

[2] = system: Beet Armyworm (Spodoptera exigua); test: Bioassay on Beet Armyworm (BAW), 128-well diet tray assay; assay type: in vivo; settings: for mortality at 50 µg/cm2: Spodoptera exigua, 168 h, 50 μg/cm^2 on artificial diet, second instar larvae, five to seven days, read-out: BAW % Control (or Mortality) rating

| Compound | mortality at 50 µg/cm2 [1] [%] | mortality at 50 µg/cm2 [2] [%] | BAW (Table CD-2) ([2]; 0.005 μg/cm^2) | BAW (Table CD-2) ([2]; 0.05 μg/cm^2) | BAW (Table CD-2) ([2]; 0.5 μg/cm^2) | BAW (Table CD-2) ([2]; 5.0 μg/cm^2) |
| --- | --- | --- | --- | --- | --- | --- |
| O=C(NNc1ncccn1)c1ccc(/C(F)=C\C(c2cc(Cl)c(Cl)c(Cl)c2)C(F)(F)F)cc1C(F)(F)F (stereo not drawn) [F74, (E)-N′-(pyrimidin-2-yl)-4-(1,4,4,4-tetrafluoro-3-(3,4,5-trichlorophenyl)but-1-en-1-yl)-2-(trifluoromethyl)benzohydrazide] | 50 to 100 | 50 to 100 | – | – | – | – |
| CN(NC(=O)c1ccc(/C(F)=C/C(c2cc(Cl)c(Cl)c(Cl)c2)C(F)(F)F)cc1Cl)c1ncccn1 (stereo not drawn) [F43, (Z)-2-Chloro-N′-methyl-N′-(pyrimidin-2-yl)-4-(1,4,4,4-tetrafluoro-3-(3,4,5-trichlorophenyl)but-1-en-1-yl)benzohydrazide] | 50 to 100 | 50 to 100 | – | – | – | – |
| O=C(Nn1ccnn1)c1ccc(/C(F)=C/C(c2cc(Cl)c(Cl)c(Cl)c2)C(F)(F)F)cc1C(F)(F)F (stereo not drawn) [F62, (Z)-4-(1,4,4,4-Tetrafluoro-3-(3,4,5-trichlorophenyl)but-1-en-1-yl)-N-(1H-1,2,3-triazol-1-yl)-2-(trifluoromethyl)benzamide] | 50 to 100 | 50 to 100 | – | – | – | – |
| O=C(NNC1CCC1)c1ccc(/C(F)=C/C(c2cc(Cl)c(Cl)c(Cl)c2)C(F)(F)F)cc1C(F)(F)F (stereo not drawn) [F138, (Z)—N′-Cyclobutyl-4-(1,4,4,4-tetrafluoro-3-(3,4,5-trichlorophenyl)but-1-en-1-yl)-2-(trifluoromethyl)benzohydrazide] | 50 to 100 | 50 to 100 | – | – | – | – |
| O=C(NNC1=NCCCN1)c1ccc(/C(F)=C/C(c2cc(Cl)c(Cl)c(Cl)c2)C(F)(F)F)cc1C(F)(F)F (stereo not drawn) [F27, (Z)-4-(1,4,4,4-Tetrafluoro-3-(3,4,5-trichlorophenyl)but-1-en-1-yl)-N′-(1,4,5,6-tetrahydropyrimidin-2-yl)-2-(trifluoromethyl)benzohydrazide] | 50 to 100 | 50 to 100 | – | – | – | – |
| O=C(NNc1ncccn1)c1ccc(/C(F)=C/C(c2cc(Br)c(Cl)c(Br)c2)C(F)(F)F)cc1C(F)(F)F (stereo not drawn) [F185, (Z)-4-(3-(3,5-Dibromo-4-chlorophenyl)-1,4,4,4-tetrafluorobut-1-en-1-yl)-N′-(pyrimidin-2-yl)-2-(trifluoromethyl)benzohydrazide] | 50 to 100 | 50 to 100 | – | – | – | – |
| O=C(NNc1ncccn1)c1ccc(/C(F)=C/C(c2ccc(F)c(Cl)c2)C(F)(F)F)cc1C(F)(F)F (stereo not drawn) [F182, (Z)-4-(3-(3-Chloro-4-fluorophenyl)-1,4,4,4-tetrafluorobut-1-en-1-yl)-N′-(pyrimidin-2-yl)-2-(trifluoromethyl)benzohydrazide] | 50 to 100 | 50 to 100 | – | – | – | – |
| CS(=O)(=O)c1nc(Cl)c(Cl)c(NNC(=O)c2ccc(/C(F)=C/C(c3cc(Cl)c(Cl)c(Cl)c3)C(F)(F)F)cc2C(F)(F)F)c1Cl (stereo not drawn) [F21, (Z)-4-(1,4,4,4-Tetrafluoro-3-(3,4,5-trichlorophenyl)but-1-en-1-yl)-N′-(2,3,5-trichloro-6-methylsulfonyl-4-pyridin-4-yl)-2-(trifluoromethyl)benzohydrazide] | 50 to 100 | 50 to 100 | – | – | – | – |
| O=C(NNc1ccncn1)c1ccc(/C(F)=C/C(c2cc(Cl)c(Cl)c(Cl)c2)C(F)(F)F)cc1C(F)(F)F (stereo not drawn) [F19, (Z)—N′-(Pyrimidin-4-yl)-4-(1,4,4,4-tetrafluoro-3-(3,4,5-trichlorophenyl)but-1-en-1-yl)-2-(trifluoromethyl)benzohydrazide] | 50 to 100 | 50 to 100 | – | – | – | – |
| O=C(NNc1c(Cl)cc(C(F)(F)F)cc1Cl)c1ccc(/C(F)=C/C(c2cc(Cl)c(Cl)c(Cl)c2)C(F)(F)F)cc1C(F)(F)F (stereo not drawn) [F87, (Z)—N′-(2,6-Dichloro-4-(trifluoromethyl)phenyl)-4-(1,4,4,4-tetrafluoro-3-(3,4,5-trichlorophenyl)but-1-en-1-yl)-2-(trifluoromethyl)benzohydrazide] | 0 | 0 | – | – | – | – |
| O=C(NNc1ccccc1)c1ccc(/C(F)=C/C(c2cc(Br)c(F)c(Br)c2)C(F)(F)F)cc1C(F)(F)F (stereo not drawn) [F45, (Z)-4-(3-(3,5-dibromo-4-fluorophenyl)-1,4,4,4-tetrafluorobut-1-en-1-yl)-N′-phenyl-2-(trifluoromethyl)benzohydrazide] | 50 to 100 | 50 to 100 | – | – | – | – |
| O=C(NNc1c(Cl)cnc(C(Cl)(Cl)Cl)c1Cl)c1ccc(/C(F)=C/C(c2cc(Cl)c(Cl)c(Cl)c2)C(F)(F)F)cc1C(F)(F)F (stereo not drawn) [F69, (Z)—N′-(3,5-Dichloro-2-(trichloromethyl)-4-pyridin-4-yl)-4-(1,4,4,4-tetrafluoro-3-(3,4,5-trichlorophenyl)but-1-en-1-yl]-2-(trifluoromethyl)benzohydrazide] | 0 | 0 | – | – | – | – |
| O=C(Nn1cnnc1)c1ccc(/C(F)=C/C(c2cc(Cl)c(Cl)c(Cl)c2)C(F)(F)F)cc1C(F)(F)F (stereo not drawn) [F48, (Z)-4-(1,4,4,4-Tetrafluoro-3-(3,4,5-trichlorophenyl)but-1-en-1-yl)-N-(4H-1,2,4-triazol-4-yl)-2-(trifluoromethyl)benzamide] | 0 | 0 | – | – | – | – |
| O=C(NNc1ncccn1)c1ccc(/C(F)=C/[C@H](c2cc(Cl)c(Cl)c(Cl)c2)C(F)(F)F)cc1C(F)(F)F (single isomer, unassigned) [F120] | 50 to 100 | 50 to 100 | 100 | 100 | 100 | 100 |
| Nc1ccccc1NNC(=O)c1ccc(/C(F)=C/C(c2cc(Cl)c(Cl)c(Cl)c2)C(F)(F)F)cc1C(F)(F)F (stereo not drawn) [F156, (Z)—N′-(2-aminophenyl)-4-(1,4,4,4-tetrafluoro-3-(3,4,5-trichlorophenyl)but-1-en-1-yl)-2-(trifluoromethyl)benzohydrazide] | 50 to 100 | 50 to 100 | – | – | – | – |
| CN(CCCC(F)(F)F)NC(=O)c1ccc(/C(F)=C/C(c2cc(Cl)c(Cl)c(Cl)c2)C(F)(F)F)cc1C(F)(F)F (stereo not drawn) [F155, (Z)—N′-Methyl-4-(1,4,4,4-tetrafluoro-3-(3,4,5-trichlorophenyl)but-1-en-1-yl)-N′-(4,4,4-trifluorobutyl)-2-(trifluoromethyl)benzohydrazide] | 50 to 100 | 50 to 100 | – | – | – | – |
| O=C(NNc1ccc(Cl)nc1)c1ccc(/C(F)=C/C(c2cc(Cl)c(Cl)c(Cl)c2)C(F)(F)F)cc1C(F)(F)F (stereo not drawn) [F136, (Z)—N′-(6-Chloropyridin-3-yl)-4-(1,4,4,4-tetrafluoro-3-(3,4,5-trichlorophenyl)but-1-en-1-yl)-2-(trifluoromethyl)benzohydrazide] | 50 to 100 | 50 to 100 | – | – | – | – |
| CC(C)(C)NNC(=O)c1ccc(/C(F)=C/C(c2cc(Cl)c(Cl)c(Cl)c2)C(F)(F)F)cc1C(F)(F)F (stereo not drawn) [F40, (Z)—N′-(tert-Butyl)-4-(1,4,4,4-tetrafluoro-3-(3,4,5-trichlorophenyl)but-1-en-1-yl)-2-(trifluoromethyl)benzohydrazide] | 50 to 100 | 50 to 100 | – | – | – | – |
| O=C(NNc1ncccn1)c1ccc(/C(F)=C/C(c2cc(F)c(Cl)c(F)c2)C(F)(F)F)cc1C(F)(F)F (stereo not drawn) [F188, (Z)-4-(3-(4-Chloro-3,5-difluorophenyl)-1,4,4,4-tetrafluorobut-1-en-1-yl)-N′-(pyrimidin-2-yl)-2-(trifluoromethyl)benzohydrazide] | 50 to 100 | 50 to 100 | – | – | – | – |
| O=C(NNc1cncnc1)c1ccc(/C(F)=C/C(c2cc(Cl)c(Cl)c(Cl)c2)C(F)(F)F)cc1C(F)(F)F (stereo not drawn) [F31, (Z)—N′-(Pyrimidin-5-yl)-4-(1,4,4,4-tetrafluoro-3-(3,4,5-trichlorophenyl)but-1-en-1-yl)-2-(trifluoromethyl)benzohydrazide] | 50 to 100 | 50 to 100 | – | – | – | – |
| Cc1cc(O)nc(NNC(=O)c2ccc(/C(F)=C/C(c3cc(Cl)c(Cl)c(Cl)c3)C(F)(F)F)cc2C(F)(F)F)n1 (stereo not drawn) [F105, (Z)—N′-(4-Hydroxy-6-methylpyrimidin-2-yl)-4-(1,4,4,4-tetrafluoro-3-(3,4,5-trichlorophenyl)but-1-en-1-yl)-2-(trifluoromethyl)benzohydrazide] | 50 to 100 | 50 to 100 | – | – | – | – |
| O=C(NNc1cccc(Cl)n1)c1ccc(/C(F)=C/C(c2cc(Cl)c(Cl)c(Cl)c2)C(F)(F)F)cc1C(F)(F)F (stereo not drawn) [F18, (Z)—N′-(6-Chloropyridin-2-yl)-4-(1,4,4,4-tetrafluoro-3-(3,4,5-trichlorophenyl)but-1-en-1-yl)-2-(trifluoromethyl)benzohydrazide] | 50 to 100 | 50 to 100 | – | – | – | – |
| N#CCN(C(=O)c1ccc(/C(F)=C/C(c2cc(Cl)c(Cl)c(Cl)c2)C(F)(F)F)cc1C(F)(F)F)N(CC#N)c1ncccn1 (stereo not drawn) [F187, (Z)—N,N′-bis(cyanomethyl)-N′-(pyrimidin-2-yl)-4-(1,4,4,4-tetrafluoro-3-(3,4,5-trichlorophenyl)but-1-en-1-yl)-2-(trifluoromethyl)benzohydrazide] | 50 to 100 | 50 to 100 | – | – | – | – |
| O=C(NNC1CCS(=O)(=O)C1)c1ccc(/C(F)=C/C(c2cc(Cl)c(Cl)c(Cl)c2)C(F)(F)F)cc1C(F)(F)F (stereo not drawn) [F135, (Z)—N′-(1,1-Dioxidotetrahydrothiophen-3-yl)-4-(1,4,4,4-tetrafluoro-3-(3,4,5-trichlorophenyl)but-1-en-1-yl)-2-(trifluoromethyl)benzohydrazide] | 50 to 100 | 50 to 100 | – | – | – | – |
| COCN(NC(=O)c1ccc(/C(F)=C/C(c2cc(Cl)c(Cl)c(Cl)c2)C(F)(F)F)cc1C(F)(F)F)c1ncccn1 (stereo not drawn) [F179, (Z)—N′-(methoxymethyl)-N′-(pyrimidin-2-yl)-4-(1,4,4,4-tetrafluoro-3-(3,4,5-trichlorophenyl)but-1-en-1-yl)-2-(trifluoromethyl)benzohydrazide] | 50 to 100 | 50 to 100 | – | – | – | – |
